Assay results: ChEMBL document CHEMBL3885861, “Open TG-GATES”

Organism: Rattus norvegicus
Assay: Open TG-GATES - Regimen: Daily Repeat
Type: toxicity, organism-based, Sprague-Dawley
Design: regimen Daily Repeat, gender Male, age 6 weeks
Details: in vivo, po, 60 mg/kg, route gavage, dose level Middle; for APTT / Bas / Eos / Fbg / Hb / Ht / Lym / MCH / MCHC / MCV / Mono / Neu / PT / Plat / RBC / Ret / WBC: tissue Blood
[1] = 72 h, tissue Kidney, time 3 day
[2] = 72 h, tissue Plasma, time 3 day

Question: What does the source list for `Cn1c(=O)c2[nH]cnc2n(C)c1=O.O` [THEOPHYLLINE]?
Answer: TERMINAL_BW (72 h, time 3 day): 242.6 g; APTT (72 h, time 3 day): 21.7 s; Bas (72 h, time 3 day): 0%; Eos (72 h, time 3 day): 0.6%; Fbg (72 h, time 3 day): 303.4 mg/dL; Hb (72 h, time 3 day): 13.4 g/dL; Ht (72 h, time 3 day): 40.4%; Lym (72 h, time 3 day): 78.4%; MCH (72 h, time 3 day): 20.8 pg; MCHC (72 h, time 3 day): 33.2%; MCV (72 h, time 3 day): 62.8 fL; Mono (72 h, time 3 day): 3.2%; Neu (72 h, time 3 day): 16.4%; PT (72 h, time 3 day): 15.5 s; Plat (72 h, time 3 day): 123.5 x10_4/uL; RBC (72 h, time 3 day): 644.2 x10_4/ul; Ret (72 h, time 3 day): 7.4%; WBC (72 h, time 3 day): 126 x10_2/uL; KIDNEY_L [1]: 1 g; KIDNEY_R [1]: 1.1 g; KIDNEY_TOTAL [1]: 2.1 g; LIVER (72 h, tissue Liver, time 3 day): 10.8 g; A/G [2]: 1.2; ALP [2]: 1599.4 IU/L; ALT [2]: 44.2 IU/L; AST [2]: 69.2 IU/L; BUN [2]: 14.8 mg/dL; CRE [2]: 0.2 mg/dL; Ca [2]: 10.7 mg/dL; Cl [2]: 106.2 meq/L; DBIL [2]: 0 mg/dL; GLC [2]: 186 mg/dL; IP [2]: 8.4 mg/dL; K [2]: 4.2 meq/L; LDH [2]: 146.6 IU/L; Na [2]: 142 meq/L; PL [2]: 132.8 mg/dL; RALB [2]: 2.9 g/dL; TBIL [2]: 0.004 mg/dL; TC [2]: 80.4 mg/dL; TG [2]: 75 mg/dL; TP [2]: 5.3 g/dL; gamma-GTP [2]: 1.4 IU/L; TERMINAL_BW ([…], time 7 day): 265.8 g; TERMINAL_BW ([…], time 14 day): 313.9 g; TERMINAL_BW ([…], time 28 day): 384.1 g; APTT ([…], time 7 day): 23.4 s; Bas ([…], time 7 day): 0%; Eos ([…], time 7 day): 0.8%; Fbg ([…], time 7 day): 299.4 mg/dL; Hb ([…], time 7 day): 13.9 g/dL; Ht ([…], time 7 day): 40.6%; Lym ([…], time 7 day): 79%; MCH ([…], time 7 day): 21.2 pg; MCHC ([…], time 7 day): 34.2%; MCV ([…], time 7 day): 61.9 fL; Mono ([…], time 7 day): 2.8%; Neu ([…], time 7 day): 16.2%; PT ([…], time 7 day): 15.4 s; Plat ([…], time 7 day): 109.7 x10_4/uL; RBC ([…], time 7 day): 655.8 x10_4/ul; Ret ([…], time 7 day): 5.4%; WBC ([…], time 7 day): 123.4 x10_2/uL; APTT ([…], time 14 day): 24.1 s; Bas ([…], time 14 day): 0%; Eos ([…], time 14 day): 0.8%; Fbg ([…], time 14 day): 336.8 mg/dL; Hb ([…], time 14 day): 14.5 g/dL; Ht ([…], time 14 day): 42.9%; Lym ([…], time 14 day): 77.8%; MCH ([…], time 14 day): 20.6 pg; MCHC ([…], time 14 day): 33.9%; MCV ([…], time 14 day): 60.7 fL; Mono ([…], time 14 day): 2.4%; Neu ([…], time 14 day): 18%; PT ([…], time 14 day): 15.1 s; Plat ([…], time 14 day): 109.2 x10_4/uL; RBC ([…], time 14 day): 706.4 x10_4/ul; Ret ([…], time 14 day): 4.9%; WBC ([…], time 14 day): 119.3 x10_2/uL; APTT ([…], time 28 day): 25.6 s; Bas ([…], time 28 day): 0%; Eos ([…], time 28 day): 1%; Fbg ([…], time 28 day): 330.2 mg/dL; Hb ([…], time 28 day): 15.8 g/dL; Ht ([…], time 28 day): 45.7%
